Target: Growth hormone secretagogue receptor type 1 (Sus scrofa)
Assay: Binding Affinity against Growth hormone secretagogue receptor of swine using [35S]MK-0677 as radioligand

Ki | SMILES
0.063 µM | CC(C)(N)CC(=O)N[C@@H]1CCc2ccccc2N(Cc2ccc(-c3ccccc3-c3nnn[nH]3)cc2)C1=O [3-Amino-3-methyl-N-{2-oxo-1-[2'-(1H-tetrazol-5-yl)-biphenyl-4-ylmethyl]-2,3,4,5-tetrahydro-1H-benzo[b]azepin-3-yl}-butyramide]
> 5 µM | CC(C)(N)CC(=O)N[C@H]1CCc2ccccc2N(Cc2ccc(-c3ccccc3-c3nnn[nH]3)cc2)C1=O [3-Amino-3-methyl-N-{(S)-2-oxo-1-[2'-(1H-tetrazol-5-yl)-biphenyl-4-ylmethyl]-2,3,4,5-tetrahydro-1H-benzo[b]azepin-3-yl}-butyramide]
